System: HIV-1
Test: HIV-1 replication in H9 cells, reverse transcriptase activity of culture supernatants (acute infection)
Type: cell-based, HIV-1 strain HXB2gptX (in human H9 cells)
Conditions: for relative efficacy on HIV-1 production: 1-100 μM, ranking among the four analogs
Method: Media was changed every other day. The effect of these compounds on virus production was determined by measuring the reverse transcriptase (RT) activity in samples of the cell culture supernatants. […] Negative controls consisted of no additions or 0.1ethanol. The results of duplicate assays were averaged. Panel B -Concentration-dependent effects of 13-oxamyristic acid on HIV-1 replication as measured by RT activity (percent of untreated control) and the presence of p24 antigen (ng/ml determined by ELISA). Error bars indicate the S.E.M. of assays done in triplicate. Panel C - The effect of 13-oxamyristic acid on syncytia formation using an arbitrary scale described under Materials and Methods, Example 16, below. Panel D - Toxicity of 13-oxamyristic acid determined by viable cell count (trypan blue exclusion), as well as by [^3 H]thymidine and [^3 H]leucine labeling (see under Materials and Methods, Example 16, below). The incorporation of these radiolabeled compounds was determined in the total cell population contained in a well after 10 days of treatment with the analog. Duplicate assays were performed and the results averaged.
Assay for HIV-1 Replication. The human T-lymphoid cell line, H9, was provided by R. D. Gallo (NIH) and maintained in RPMI-1640 medium supplemented with 10% fetal bovine serum, 100 IU/mL penicillin, 100 μg/mL streptomycin an 2 mM L-glutamine. HIV-1 strain HXB2gptX [Fisher et al., Science 233, 655-659 (1986)] was obtained from cultures of chronically infected H9 cells [Popovic et al., Science 224, 497-500 (1984)]< filtered through 0.2 μm Millipore filters and stored at -90° C. The titer of the virus stock was determined by serial dilution using syncytia formation and reverse transcriptase activity (see below) as a measure of infectivity in H9 cells.
Cell-free HIV-1, at a multiplicity of infection (m.o.i.) equal to 0.01-0.001, was added to 10^7 H9 cells which had been pretreated with 2 μg/ml Polybrene® (hexadimethrene bromide, Sigma). Following a 30 min incubation at 37° C. to absorb the virus, 4 × 10^5 of virus treated cells in 1 mL of fresh medium (plus 10% fetal calf serum, pencillin and streptomycin) were added to each well of a 24 well tissue culture plate (Falcon), and mixed with an equal volume of serum-free RPMI-1640 medium containing analog. Medium containing 5% serum, antibiotics ± analog was replaced every other day. Each of the heteroatom substituted analogs was prepared as a 100 mM stock solution in 100% ethanol and stored at -90° C. prior to dilution in the serum-free RPMI-1640 medium. The maximum final ethanol concentration reached after dilution of the different analogs in media was 0.1%. Therefore, uninfected and infected H9 cells, treated with or without 0.1% ethanol, were used as controls for each test. Ethanol alone had no demonstrable effects.
Except for the preliminary screening of the various (coded) analogs which was done twice, all other assays were performed at least three times. Samples were tested in duplicate each time the assay was repeated.
Virus Assays. Virus was quantitated using supernatant solutions of cells harvested on day 8 (m.o.i.=0.01) or day 10 (m.o.i.=0.001) of treatment. Virions were concentrated 10 fold by precipitation of culture supernatants with a solution of polyethylene glycol (30% in 150 mM NaCl, 0.1 mM phenylmethylsulfonylfluoride). The precipitates were solubilized and virus-associated reverse transcriptase (RT) activity measured by [^32 P]TTP incorporation using a poly(rA)-oligo(dT) template [Poiesz et al., Proc. Natl. Acad. Sci. USA 77, 7415-7419 (1980)]. Cell supernatants were also tested for virus-specific antigen using a p24 ELISA from Dupont (Wilmington, DE). This assay can detect as little as 0.03 ng of antigen/mL (antigen=p24, the major structural nucleocapsid protein of HIV-1, as well as its precursor, Pr55^gag).
HIV-1 Replication in H9 Cells is Inhibited by Treatment with Heteroatom-Containing Analogs of Myristate. […]

[1] = Human immunodeficiency virus 1, H9, 240 h, read-out: reverse transcriptase (RT) activity

COCCCCCCCCCCCC(=O)O [13-oxamyristate, 12-(Methoxy)dodecanoic acid]
dose dependence of reduction in reverse transcriptase activity (0.1 μM to 100 μM, H9 cells): dose dependent reduction in reverse transcriptase activity | effect on reverse transcriptase activity (1-10 μM, 10 day incubation, HIV-1 infected H9 cells): More pronounced effects | relative efficacy on HIV-1 production (H9 cells): greatest effects | relative efficacy on HIV-1 production (H9 cells, listed as 13-oxamyristic acid): most effective | reduction in virus replication (reverse transcriptase) (20-40 μM range, H9 cells): greater than 90% | activity at 10 µM [1]: 20% | activity at 100 µM [1]: < 10%

— patent publication US5073571A, “Method of inhibiting virus” (priority 1989, dated 1991)
